Assays:
[1] = In vivo oral toxicity in mice; settings: for toxic effects when dosed orally: gavage daily for nine days, 100 mg/kg; for signs of toxicity in mice, in words: mouse, in vivo
Procedure: Selected compounds were evaluated for in vivo efficacy against T. gondii and P. falciparum. To asses toxic effects when administered orally, selected compounds were administered orally to mice daily for nine days at a dose of 100 mg/kg. At the end of the ten days, the animals were evaluated for toxic effects.
Todetermine whether 14a or 14b exerted toxic effects when dosed orally, each compound was administered by gavage to mice daily for nine days at a dose of 100 mg/kg.
HLA B07 transgenic mice were produced at Pharmexa-Epimmune (San Diego, Calif., USA) and bred at the University of Chicago. All studies were conducted with Institutional Animal Care and Use Committee at the USDA, the University of Chicago, and the University of Strathclyde.

T. gondii Me-49 oocysts = experiment: Mouse model of T. gondii oocyst infection, Me-49; type: in vivo, mice
Procedure: (§1) Compounds 14a and 14b were tested for efficacy against T. gondii in the oocyst stage following per oral challenge in mice. Mice were infected by oral gavage with ME49 or TgGoatUS4 oocysts. Mice were treated with either 100 mg/kg or 25 mg/kg) of test substance.
(§2) Thus, compounds 14a and 14b were tested for efficacy in a mouse model of T. gondii oocyst infection. The oocyst form of the parasite is excreted by cats and is often the form by which people and other animals become infected. This oocyst infection in mice is very virulent, and fatal. Mice were infected by oral gavage with ME49 or TgGoatUS4 oocysts. Mice were treated with either a high dose (100 mg/kg) or low dose (25 mg/kg) of 14a or 14b 1 mL suspension via oral gavage, or were not treated. […] Treatment with 14a and 14b increased survival by 1 day (Table 6, FIGS. 8 and 9).
(§3) HLA B07 transgenic mice were produced at Pharmexa-Epimmune (San Diego, Calif., USA) and bred at the University of Chicago. […]
(§4) Oocysts were obtained by feeding infected tissues of Swiss Webster mice to cats, sporulated in 2% sulfuric acid on a shaker for one week, and stored at 4° C. until used (Dubey 2010). Oocysts were counted in a disposable hemocytometer and diluted 10-fold from 10^−1 to 10^−7 to reach an end point of ≅1 oocyst. […]

[2] = system: T. gondii TgGoatUS4 oocysts; experiment: Mouse model of T. gondii oocyst infection, TgGoatUS4; type: in vivo, mice
Procedure: as §1, §2, §3, §4

[3] = Hydrolytic stability of acylated derivatives (data not shown); type: physicochemical
Procedure: A cursory study of the effect of capping the phenol of 4 via acylation was undertaken. The acylated derivatives 7 were prepared and tested. […] The intrinsic activity of intact 7a cannot yet be ruled out, and this interesting phenomenon is currently under study.

SMILES	toxic effects when dosed orally [1]	signs of toxicity in mice, in words [1]	increase of survival (T. gondii Me-49 oocysts; Me-49 oocysts, 100 or 25 mg/kg) [days]	survival of mice infected with T. gondii oocysts, in words (T. gondii Me-49 oocysts; mouse, in vivo)	increase of survival ([2]; TgGoatUS4 oocysts, 100 or 25 mg/kg) [days]	survival of mice infected with T. gondii oocysts, in words ([2]; mouse, in vivo)	stability against hydrolysis [3]
CN(CC(=O)NN)C(=O)Oc1ccc(Cl)cc1C(=O)Nc1ccc([N+](=O)[O-])cc1Cl.Cl [Compound 14a, 4-chloro-2-((2-chloro-4-nitrophenyl)carbamoyl)phenyl (2-hydrazinyl-2-oxoethyl)(methyl)carbamate hydrochloride]	all mice were alive and appeared healthy	no signs of toxicity	1	effective at prolonging slightly the survival			
CN(CC(=O)NN)C(=O)Oc1ccc(Cl)cc1C(=O)Nc1ccc(C(F)(F)F)cc1C(F)(F)F.Cl [Compound 14b, 2-((2,4-bis(trifluoromethyl)phenyl)carbamoyl)-4-chlorophenyl (2-hydrazinyl-2-oxoethyl)(methyl)carbamate hydrochloride]	all mice were alive and appeared healthy	no signs of toxicity			1	effective at prolonging slightly the survival	
O=C(Oc1ccc(Cl)cc1C(=O)Nc1ccc([N+](=O)[O-])cc1Cl)c1ccccc1 [Compound 7a, 4-chloro-2-((2-chloro-4-nitrophenyl)carbamoyl)phenyl benzoate]							hydrolytically labile under certain conditions

Reference: US20130324555A1, “Method of use of pharmaceutical formulations for the treatment of apicomplexan diseases in animals” (priority 2012, published 2013)
